Measurements published in patent US12031137B2, “Compositions comprising SASP modulators and senescence attenuators and uses thereof for modulating cellular senescence” (RSEM, LIMITED PARTNERSHIP, priority 2016, dated 2024).

Columns and labels:
[1] = target: T1, IRE1α's endoribonuclease activity (Mus musculus, UniProt Q9EQY0); assay: SEMA3A-driven senescence in J774 cells with IRE1α RNase inhibitor; format: cell-based
T1 construct: endogenous in cells; host or cells: J774 (J774A.1) mouse macrophage-like cells
T1 sequence (Q9EQY0 21-977): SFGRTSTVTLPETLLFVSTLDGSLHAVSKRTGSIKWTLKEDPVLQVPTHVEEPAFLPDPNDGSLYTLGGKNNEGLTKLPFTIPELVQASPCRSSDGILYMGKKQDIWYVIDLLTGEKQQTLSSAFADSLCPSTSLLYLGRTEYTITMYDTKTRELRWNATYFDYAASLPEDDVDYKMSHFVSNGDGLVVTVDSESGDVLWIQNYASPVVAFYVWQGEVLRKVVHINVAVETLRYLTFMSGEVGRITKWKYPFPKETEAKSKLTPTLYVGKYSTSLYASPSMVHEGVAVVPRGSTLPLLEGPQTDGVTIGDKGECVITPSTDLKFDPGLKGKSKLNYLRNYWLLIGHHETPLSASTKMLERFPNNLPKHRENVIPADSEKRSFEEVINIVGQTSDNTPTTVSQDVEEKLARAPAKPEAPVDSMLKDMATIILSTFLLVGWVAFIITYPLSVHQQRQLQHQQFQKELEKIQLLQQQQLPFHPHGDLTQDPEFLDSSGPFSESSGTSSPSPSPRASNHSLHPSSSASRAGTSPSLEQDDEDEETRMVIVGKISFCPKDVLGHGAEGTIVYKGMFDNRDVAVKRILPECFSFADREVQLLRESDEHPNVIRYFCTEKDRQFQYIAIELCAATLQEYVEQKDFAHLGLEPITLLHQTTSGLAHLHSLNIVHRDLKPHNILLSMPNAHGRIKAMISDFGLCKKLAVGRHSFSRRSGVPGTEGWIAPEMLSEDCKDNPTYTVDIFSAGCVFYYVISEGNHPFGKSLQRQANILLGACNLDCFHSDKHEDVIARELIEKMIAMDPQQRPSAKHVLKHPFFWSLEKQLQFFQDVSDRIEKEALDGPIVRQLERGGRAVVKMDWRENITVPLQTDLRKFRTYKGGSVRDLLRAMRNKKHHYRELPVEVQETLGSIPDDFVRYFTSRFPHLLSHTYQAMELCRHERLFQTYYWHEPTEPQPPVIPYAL
Description: FIG. 7C: Representative confocal immunofluorescence staining of γH2AX and DAPI of J774 macrophages stimulated with SEMA3A (100 ng/mL) or vehicle for 7 days (Scale bars are 100 μm). Higher magnification views of the outlined areas are shown (Scale bars are 50 μm). Immunoblots (FIG. 7D) for the XBP1(s) (spliced isoform) and PCR (FIG. 7E) for XBP1(s) and unspliced XBP1 (u) in J774 cell lysates treated with vehicle, S3A (100 ng/ml) and/or 4μ8c (1 ng/ml) at day 7 post-treatment. FIG. 7F: RT-qPCR for levels of Pai1, II6, II1β, Tgf-β1, Tp53, Ire1α and Tnfα in J774 stimulated with SEMA3A alone or with 4μ8c. β-actin was used as a reference gene. ***P<0.0001, *P<0.005. Scale bars: 100 μm for C & G. High mag C is 50 μm. Data are presented as mean±SEM;
To determine whether SEMA3A-driven senescence was occurring through IRE1α's kinase or RNAse activity, the selective cell-permeable coumarin o-hydroxyaldehyde pharmacological inhibitor of IRE1α's endoribonuclease activity, 4μ8c, was used. Exposure to 4μ8c (FIG. 7D) prevented SEMA3A-induced growth arrest and abrogated SEMA3A-induced senescence (data not shown). […] Ultimately, pharmacological inhibition of the endoribonuclease activity of IRE1α inhibited production of specific senescence-associated genes Vegf-a, Tgf-β1, II-1β, II-6, Pai-1, Tp53 while there is no effect on Tnf-α or IRE1α itself (FIG. 7F).
(§1) Semi-quantitative and Real-time PCR analysis. We isolated RNA using the GenElute™ Mammalian Total RNA Miniprep Kit (Sigma) and performed a digestion with DNase I to prevent amplification of genomic DNA. We reversed transcribed the RNA using M-MLV reverse transcriptase and analyzed gene expression using SybrGreen™ in an ABI Biosystems Real-Time PCR machine. β-actin was used as a reference gene. […] We investigated the splicing of XBP-1 by incubating the XBP-1 semi-quantitative PCR product with 0.4 U/μL of PstI enzyme for 5 hrs at 37° C. followed by separation on 2.5% agarose gel.
(§2) Western blotting. We enucleated eyes at varying time points and rapidly dissected and homogenized retinas for assessment of retinal protein levels. Protein concentration from retinal homogenate and cell lysates were assessed by BCA assay (Sigma), and then 30 μg of protein analyzed for each condition by standard SDS-PAGE technique.

[2] = tested on: mouse model of oxygen-induced retinopathy (OIR); assay: Avascular area and pre-retinal neovascularization in OIR flatmount retinas; format: in vivo
[3] = tested on: mouse model of oxygen-induced retinopathy (OIR); assay: Immunoblot and RT-qPCR of OIR retinas after intravitreal injection; format: in vivo; conditions: intravitreal injection at P12, P14 OIR retinas
Excerpt: (§3) O2-induced retinopathy. Mouse pups from different strains (C57Bl/6 WT, LyzM-Cre, LysM-Cre/IRE1^fl/fl, LysM-Cre/IRE1^+/+, IRE1^fl/fl and LysM-Cre/ROSA26EYFP^fl/fl), and their fostering mothers (CD1, Charles River) were exposed to 75% 02 from postnatal day 7 (P7) to day 12 and returned to room air. This model serves as a proxy to human ocular neovascular diseases such as ROP and diabetic retinopathy characterized by a late phase of destructive pathological angiogenesis (72, 73). Upon return to room air, hypoxia-driven neovascularization (NV) develops from P14 onwards (27). We enucleated eyes at different time points and dissected the retinas for mRNA, protein assays or flatmounting.
as §1
(§4) Intravitreal injections. P2, P10 or P12 C57BL/6 pups were anesthetized with 3.0% isoflurane and injected in the vitreous chamber with 0.5 μL of lentivirus (see “Lentivirus production”), recombinant SEMA3A (100 ng/μL), metformin (10 μg/μL) or Aflibercept (10 μg/uL) using a 10-μL Hamilton syringe fitted with a […] glass capillary tip. Approximately 254±11.0 ng/μL of lentivirus Sh_GFP and 323.3±15.3 ng/μL containing Sh_Sema3a, Lv.Cre (15.0 ng/mL), Lv.GFP (15.0 ng/mL) was injected. Virus titers were assessed with the p24 ELISA kit (ZeptoMetrix). The titers of the lentiviruses used were (in ng p24) LV.Sh_RNA IRE1α (8.52 ng/mL), and LV.Sh_RNA.GFP (8.47 ng/mL).
as §2

[4] = tested on: mouse model of oxygen-induced retinopathy (OIR); assay: SA-β-gal staining of retinas in oxygen-induced retinopathy (OIR) after intravitreal injection; format: in vivo; conditions: single intravitreal injection at P12, vs vehicle
Excerpt: as §3
Senescence-associated β-galactosidase (SA-β-gal) assay. Senescence-associated β-galactosidase assays were carried out as described previously (57, 75)
Quantification of SA-β-gal in vivo. Senescence-associated β-galactosidase staining in flatmount retinas or sagittal eye sections were analyzed using Image J software as described in FIG. 14.
as §4

[5] = J774 stimulated with SEMA3A alone or with 4μ8c
[6] = intravitreal injection at P12 of OIR

SEMA3A-mediated splicing and activation of XBP1 ([1]; J774, S3A 100 ng/ml, 4μ8c 1 ng/ml, day 7) | SEMA3A-induced growth arrest ([1]; J774 cells, data not shown) | SEMA3A-induced senescence ([1]; J774 cells, data not shown) | Tnf-α or IRE1α expression (RT-qPCR) [1, 5] | production of senescence-associated genes Vegf-a, Tgf-β1, Il-1β, Il-6, Pai-1, Tp53 (RT-qPCR) [1, 5] | Compound | pathological neovascularization at P17 OIR ([2]; intravitreal injection at P12, vs vehicle) | rates of vascular regeneration at P14 [2, 6] | rates of vascular regeneration at P17 [2, 6] | drivers of senescence (Cdkn2a, Tp53, Il1β, Tgf-β1, Sema3a RT-qPCR) [3] | SA-β-gal staining at P14 OIR [4] | SA-β-gal staining at P17 OIR (cellular senescence) [4]
prevented | prevented | abrogated | no effect | inhibited | Cc1cc(=O)oc2c(C=O)c(O)ccc12 [Trap 4μ8c] |  |  |  |  |  | 
 |  |  |  |  | Aflibercept: recombinant fusion protein made-up of the extracellular domains of human VEGF receptors 1 and 2 and an Fc portion | marked decrease | does not modulate | does not modulate | does not modulate | did not significantly influence | did not significantly influence
